From publication PMC11413853, “Discovery of VU6007496: Challenges in the Development of an M1 Positive Allosteric Modulator Backup Candidate” (ACS Chemical Neuroscience, 2024)
Entries after “also recorded” stand apart in the source; their conditions may differ. Read-outs that look alike come from different tables or passages of the source.

Legend:
mice = test: Mouse phenotypic seizure liability assay (modified Racine score); assay type: in vivo; conditions: 100 mg/kg i.p.; for seizure liability / behavioral convulsions (modified Racine score): male C57Bl/6 mice, 3 h
Description: Brain plasma concentration ratio (Kp) was calculated by dividing brain concentration by plasma concentration for each animal. Unbound brain to unbound plasma concentration ratio (Kp,uu) is calculated using the following formula: Kp,uu = (Brain ng/g x brain fu)/(plasma ng/ml x plasma fu). […]
Behavioral Manifestations of Seizure Activity
To evaluate induction of behavioral manifestation of seizure activity, C57Bl/6 mice received administration of vehicle or 100 mg/kg M1 PAM. Compounds were formulated in 30% Captisol (11) or 10% Tween 80 (2-4 and 12) (pH 7.0) at a concentration of 10 mg/mL and injected i.p. (n = 3). Animals were monitored continuously and scored for behavioral manifestations of seizure activity at 5, 10, 15, and 30 min, and 1 and 3 h. Behavioral manifestations of seizures were scored using a modified Racine scoring system.2 Briefly, a score of 0 represents no behavior alterations; score 1, immobility, mouth and facial movements, or facial clonus; score 2, head nodding, tail extension; score 3, forelimb clonus, repetitive movements; score 4, rearing and tonic clonic seizure; and score 5, continuous rearing and falling, severe generalized tonic clonic seizure.

[1] = tested on: CYP3A4, CYP1A2, CYP2C9 and CYP2D6; test: CYP450 profile (summary over four isoforms); assay type: in vitro ADME; conditions: human; summary over the four isoforms; read-out: CYP450 IC50s against CYP3A4, CYP1A2, CYP2C9 and CYP2D6
[2] = Rat plasma and brain exposure, 100 mg/kg i.p., 3 h; assay type: in vivo; conditions: ip; for Kp at 3 h: brain and plasma, 100 mg/kg i.p.; for concentration at 3 h: 100 mg/kg i.p. in 30% captisol
From the text: Due to the prevalence of metabolite A (VU6036463, 24) in both in vitro preparations and in vivo, we first synthesized and characterized 24. Utilizing intermediate 19 (Scheme 3), a Suzuki coupling with benzyl chloride 28 afforded a mixture of N-Boc protected analog 29 and N-H analog 29a in moderate isolated yield. Hydrolysis of the nitriles to the carboxylic acid, followed by a HATU-mediated coupling with tetrahydro-2H-pyran-4-amine delivered 24 in 81% yield over the two steps.[21] In our kinetic assays, 24 was an “active” metabolite, with the profile of an M1 ago-PAM. […] To ascertain if 24 could be the source of the adverse cholinergic events in rats, we dosed 11 and 24, in parallel, at a dose of 100 mg/kg i.p. in 30% captisol and prepared plasma and brain samples at a 3-h time point to determine brain exposure of the M1 ago-PAM 24. In this study, 11 achieved a total plasma concentration of 3.6 μM and a total brain concentration of 0.93 μM (Kp = 0.26).

[3] = Rat IV plasma:brain level cassette; assay type: in vivo; conditions: male, 0.25 mg/kg; for concentration at 15 min: Sprague Dawley; for Kp uu at 0.25 h / Kp at 0.25 h: Sprague-Dawley, brain and plasma, 15 min; for Kp at 0.25 h: brain:plasma
Description: PAMs 11 and 12 were next evaluated in our rat IV plasma: brain level cassette paradigm (0.25 mg/kg compound, 1 mg/kg total dose, 10.1% EtOH:40.4% PEG400:49.5% DMSO) sampled at a set 15 min time point to assess CNS penetration. […] As mice are the most sensitive species to cholinergic mechanisms,[11],[13],[23],[24] we placed a high-throughput phenotypic seizure liability assay into the work-flow in which potent ago-PAMs, such as 2–5,[8]−[15] display robust Racine scale 4/5 behavioral convulsions that develop within minutes of dosing and last for the 3 h duration of the study. […] In parallel, we performed electrophysiology studies in mouse native tissue layer V medial prefrontal cortex (mPFC). […] Thus, both compounds cleared the major hurdles of CNS penetration and the liability of M1 overstimulation. […]
LC/MS/MS Bioanalysis of Samples from Plasma Protein Binding and Intrinsic Clearance […]
Samples were analyzed on a Thermo Electron TSQ Quantum Ultra triple quad mass spectrometer (San Jose, CA) via electrospray ionization (ESI) with two Themo Electron Accella pumps (San Jose, CA), and a Leap Technologies CTC PAL autosampler (Carrboro, NC). Analytes were separated by gradient elution on a dual column system with two Thermo Hypersil Gold (2.1 x 30 mm, 1.9 µm) columns (San Jose, CA) thermostated at 40 °C. HPLC mobile phase A was 0.1% formic acid in water and mobile phase B was 0.1% formic acid in acetonitrile. The gradient started […]
for 0.2 min; returned to 10% B in 0.1 min. The total run time was 1.3 min and the HPLC flow rate was 0.8 mL/min. While pump 1 ran the gradient method, pump 2 equilibrated the alternate column isocratically at 10% B. Compound optimization, data collection, and processing was performed using Thermo Electron's QuickQuan software (v2.3) and Xcalibur (v2.0.7 SP1).
In vivo DMPK experimental:
Determination of brain to plasma ratio:
All animal study procedures were approved by the Institutional Animal Care and Use Committee and were conducted in accordance with the National Institutes of Health regulations of animal care covered in Principles of Laboratory Animal Care (National Institutes of Health). All rats were fasted overnight prior to testing.
For determination of the brain over plasma ratio (Kp), compounds were formulated in 8% ethanol, 32% PEG400 and 60% DMSO (v/v/v) and administered as a single 0.2 mg/kg IV dose (1 mL/kg) to male, Sprague Dawley rats (n = 1) via injection into a surgically-implanted jugular vein catheter. At 15 min post dosing, blood sample was collected into chilled, K2EDTA anticoagulant-fortified tube and immediately placed on wet ice. The blood sample was then centrifuged (1700 rcf, 5 minutes, 4 °C) to obtain plasma sample. At the same post-administration time point, whole brain sample was obtained by rapid dissection, rinsed with PBS, and immediately frozen in individual tissue collection box (dry ice). All brain and plasma samples were stored at -80 °C until […]
Sample Analysis: Concentrations in plasma and brain homogenates were quantified by liquid chromatography tandem mass spectrometry (LC-MS/MS). Whole brains were homogenized in 3 mL of 70:30 IPA:water in a mini bead beater for 3 min, and centrifuged at 3,500 g for 5 min. 5 uL of the supernatant was diluted in 15 uL of blank plasma for quantification of the analytes. Plasma samples were centrifuged at 3,500 g for 5 min. A standard curve was generated by diluting the analytes DMSO stocks with blank plasma to obtain a final concentration of 10,000 ng/ml followed by a serial dilution down to 0.5 ng/ml. Quality controls were generated by a serial dilution of the 5,000 ng/ml standard curve solution in blank plasma to obtain 3 concentrations of 500, 50, and 5 ng/ml. 20 uL of brain diluted in plasma, plasma, blank plasma, standard curve and QC samples were loaded in a V-bottom 96-well plate. 120 uL of acetonitrile containing 0.05 uM carbamazepine (internal standard) was added to each well and the plate was centrifuged at 3,500 g for 5 min. 60 […]

[4] = IV/PO pharmacokinetics, dog; assay type: in vivo, dog (beagle or mongrel); conditions: for clearance / Vd / half-life: plasma, 1 mg/kg; for clearance: read-out: CLp; for Vd: read-out: Vss; for half-life: read-out: elimination t1/2 (converted)
From the text: We next conducted multispecies IV/PO PK in parallel as a potential discerning data set.

[5] = brain, read-out: total brain concentration
[6] = plasma, read-out: total plasma concentration
[7] = brain, read-out: brain concentration
[8] = plasma, read-out: plasma concentration

SMILES	seizure liability / behavioral convulsions (modified Racine score) (mice)	total brain exposure (mice; mouse)	IC50 [1]	Kp at 3 h [2]	concentration at 3 h [2, 5]	concentration at 3 h [2, 6]	concentration at 15 min [3, 7]	concentration at 15 min [3, 8]	Kp uu at 0.25 h [3]	Kp at 0.25 h [3]	F (%) po ([4]; dose iv/po 1/5 mg/kg)	clearance ([4]; dose iv/po 1/5 mg/kg)	Vd ([4]; dose iv/po 1/5 mg/kg)	half-life ([4]; dose iv/po 1/5 mg/kg)	F (%) po ([4]; dose iv/po 1/3 mg/kg)	clearance ([4]; dose iv/po 1/3 mg/kg)	Vd ([4]; dose iv/po 1/3 mg/kg)	half-life ([4]; dose iv/po 1/3 mg/kg)
Cn1ccc(-c2ccc(Cc3cc(C(=O)NC4CCOCC4)nc4ccn(C)c34)cc2)n1 [compound 11]	did not induce seizure liability; also recorded: did not cause any observed adverse effects	1.04 µM	> 16 µM	0.26	930 nM	3600 nM	39 ng/g	92.2 ng/mL	0.36	0.42	35%	2.4 mL/min/kg	2.2 L/kg	768 min				
Cn1ccc(-c2ccc(Cc3cc(C(=O)NC4CCOCC4)nc4ccsc34)cc2)n1 [compound 12]	did not induce seizure liability; also recorded: did not cause any observed adverse effects		> 16 µM				120 ng/g	105 ng/mL	0.7	1.1					9%	1.3 mL/min/kg	4 L/kg	2200 min
Cn1ccc2nc(C(=O)NC3CCOCC3)cc(Cc3ccc(-c4cc[nH]n4)cc3)c21 [compound 24]				0.07	80 nM	1200 nM												
